Data reported in article PMC5987406, “Antioxidant, anticholinesterase and antifatigue effects of Trichilia catigua (catuaba)” (BMC Complementary and Alternative Medicine, 2018).

How the values were obtained:
mice = assay: Classical fear conditioning, scopolamine-induced amnesia; type: in vivo; details: scopolamine 2 mg/kg i.p., not statistically significant
Protocol: Male albino Swiss mice (30-50 g) and male Wistar rats (300-450 g), 3–4 months old, from our vivarium (Department of Psychobiology, UNIFESP) were housed in rooms with 12 h light-dark circle, controlled temperature (21 ± 2 °C), with filtered tap water and food (Nuvilab, Brazil) ad libitum, except during the experiments. The animals were kept in polypropylene cages (4–5 animals each) with pine shavings as bedding material. […] The animals were euthanized in CO2 chamber or by decapitation (in the case of stress by immobilization test). The protocols followed the International Guiding Principles for Biomedical Research Involving Animals and were approved by UNIFESP ethics committee (Comissão de Ética no Uso de Animais, from Universidade Federal de São Paulo, São Paulo, Brazil) - protocol #0752/07.
On the training day, the animals (except the negative control group) received scopolamine (2 mg/kg, i.p. - Sigma, St. Louis, MO, USA) in 0.9% saline 30 min after the extract treatment and 30 min later were placed individually in the context cage dotted with some visual cues. After 2 min of habituation, three electrical shocks (0.3 mA, 1 s duration and interval of 10s) were delivered to the paws of the animal (adapted from Soeiro et al.). […]

[1] = DPPH assay (radical scavenging); details: 95% confidence interval in parenthesis; linear regression, mean of 3–4 assays
Protocol: The test was based on the protocol of Duarte-Almeida et al. [25], with some modifications. An ethanolic solution of 2,2-diphenyl-1-picryl hydrazyl (DPPH) (Sigma, St. Louis, MO, USA) was prepared in order to produce an absorbance between 0.8 and 0.99 at 517 nm. One hundred microliters of each extract diluted in ethanol (Synth, Diadema, Brazil) at initial concentrations of 0.004, 0.01, 0.04, 0.1, 0.4 and 1.0 mg/mL were pipetted in a cuvette and after the addition of 900 μL of DPPH the cuvette was placed in a spectrophotometer (PG Instruments LTD, Leicestershire, United Kingdom) and read during 2 min at 517 nm. Ethanol (vehicle) was used as control and rutin (Acros Organics, New Jersey, USA) as positive control. The percentage of DPPH scavenger (S) was calculated by the formula: SDPPH = [(Ac - As)/Ac] × 100, where Ac = absorbance for the control and As = absorbance for the sample.
The statistical analysis was carried out using the Statistica® and Graph Pad Prism® software. The EC50 for DPPH and IC50 for acetylcholinesterase were calculated by linear regression using the mean of scavenge or inhibition for each concentration of the tested drugs. […] We adopted a p value of 0.05 as statistically significant.

Compound	Reduction of freezing time compared with control mice that did not receive scopolamine (mice) [%]	DPPH scavenging EC50 [1]
CN1[C@@H]2C[C@@H](OC(=O)[C@H](CO)c3ccccc3)C[C@H]1[C@@H]1O[C@@H]12 [scopolamine]	40.9	
C[C@@H]1O[C@@H](OC[C@H]2O[C@@H](Oc3c(-c4ccc(O)c(O)c4)oc4cc(O)cc(O)c4c3=O)[C@H](O)[C@@H](O)[C@@H]2O)[C@H](O)[C@H](O)[C@H]1O [Rutin, rutin]		44 (9–216) μg/mL
